Read-outs that look alike come from different tables or passages of the source.
Experiments:
ENO2 [1] = target: T1, ENO2 (Homo sapiens, UniProt P09104); experiment: X-ray structure of ENO2 crystals soaked with inhibitor; format: binding; design: His tag (only implied by NiNTA purification); made in house; details: apo ENO2 crystals soaked with 2 mM compound; unbiased 2Fo-Fc omit map
Method: MethylSF2312 was co-crystallized with Human ENO2 to determine the configuration of the active compound in the active site. Apo crystals of ENO2 were prepared using published methods and were soaked in cryoprotectant containing the racemic mixture of MethylSF2312 for 16 h prior to freezing. The resulting co-crystal structure was resolved (Table 1), with four ENO2 homodimers in the asymmetric unit of the monoclinic crystal (PDB 5EU9).
Recombinant ENO2 protein was prepared using NiNTA affinity and size exclusion chromatography as described previously Apo crystals of Human Enolase 2 were prepared by streak seeding hanging drop solutions after mixing 0.5 μL 9.1 mg mL^−1 Enolase 2 with 0.5 μL reservoir solution (200 mM ammonium acetate, 100 mM Bis-Tris and 18–22% (w/v) PEG 3350). The hanging drops were incubated at room temperature above a 500 μL reservoir. Apo crystals were subsequently soaked overnight in 1 μL drops containing 100 mM Bis-Tis, 200 mM ammonium acetate, 32% (w/v) PEG 3350 at pH 6.5, supplemented with 2 mM racemate or pure enantiomer of MethylSF2312 compound, prior to flash freezing in liquid nitrogen. X-ray diffraction datasets were collected at 100 K using a wavelength of 1.11587 Å at the Advanced Light Source Beamline 8.3.1, equipped with ADSC Q315r detector. The diffraction images were indexed and integrated using iMOSFLM [19] and scaled using AIMLESS [20]. […]

E. coli (DH5α) = experiment: Kirby Bauer disc diffusion antibiotic sensitivity testing; format: cell-based, Escherichia coli; details: for zone of inhibition at 35 µg/disc: Escherichia coli, read-out: clear zone of growth inhibition
Method: Finally, the antibiotic activities of SF2312 and MethylSF2312 were compared in E. coli using the disc diffusion method. A 7 mm filter paper disc imbued with 35 µg of either SF2312 or MethylSF2312 was placed on an E. coli lawn on Muller-Hinton Agar. […] Of note, growth inhibition was only observed with the addition of glucose-6-phosphate (G6P).
Kirby Bauer disc diffusion antibiotic sensitivity testing was performed on Mueller Hinton II Agar (BD #221275) or BBL™ Columbia Agar with 5% Sheep Blood (BD #221165). An overnight overnight-grown saturated E. coli (DH5α) liquid culture was diluted (1:50) in water and streaked on the agar plate to form a bacterial lawn. D-Glucose-6-phosphate (Sigma #G7250) was made in 100 mM stock solution and added to the diluted bacteria to achieve 2 mM final concentration right before streaking the plate. A 7 mm Whatman™ 3MM Chr Chromatography filter paper disc (Whatman # 3030-6189) was imbued with 7 µL of an aqueous solution of inhibitor, placed on the streaked agar plate and incubated overnight at 37 °C.

[2] = tested on: D423 ENO1-deleted glioma cells; experiment: Proliferation assay of glioma cell lines by crystal violet staining; format: cell-based, human; details: for toxicity against ENO1-deleted versus ENO1-intact glioma cells (in words): six days of treatment, D423 ENO1-deleted vs D423 ENO1-rescued and LN319 ENO1-WT
From the text: The cell line D423-MG was provided by Dr. Bigner. The 1p36 homozygous deletion in D423-MG spans from the CAMTA1 to SLC25A33 genes, including ENO1. The generation of isogenic ENO1 and ENO2 ectopically rescued lines was described previously. The LN319 cell line was obtained from Cell Bank of The Department of Genomic Medicine at M.D. Anderson. Cells were routinely cultured in high glucose, glutamine, and pyruvate containing Dulbecco’s modified Eagle’s medium (DMEM) with 10% fetal bovine serum (FBS).
Cell proliferation of glioma cell lines was assayed through crystal violet staining. Cells were seeded at 1500 cells/well in 96-well plates, and after 24 h, were treated with dilution series of enolase inhibitors, with each treatment concentration in duplicate wells. At the indicated time, cells were fixed with 10% formalin and stained with crystal violet. Dye extraction was performed using 10% acetic acid solution, and absorbance was read at 595 nm.

[3] = target: T2, Enolase in Escherichia coli lysates (Escherichia coli, UniProt P0A6P9); experiment: Enolase activity in E. coli native lysates, direct measurement of PEP formation at 240 nm; format: biochemical
T2 construct: Overnight grown saturated E. coli (DH5α) liquid culture was pelleted by centrifugation; endogenous in cells; host or cells: E. coli DH5α
Method: (§1) To compare the effects of isomeric mixtures of MethylSF2312 and SF2312 on Enolase activity, we measured the formation PEP coupled to the oxidation of NADH via LDH/PK on human cancer cells overexpressing ENO2 [4, 14]. […] Here, we favored the direct measurement of PEP absorbance, rather than of NADH, due to the high levels of endogenous NADH oxidase activity in bacterial lysates.
Native lysates of human cell lines were prepared using 20 mM Tris HCl, 1 mM EDTA, and 1 mM β-mercaptoethanol at pH 7.4 as described previously. Enolase activity was measured using two different methods, either by a fluorometric NADH-linked assay or a direct spectrophotometric assay via formation of PEP. In the fluorescent assay, enolase activity was measured via NADH oxidation in a pyruvate kinase–lactate dehydrogenase coupled assay as previously described. The assay is conducted in 10 mM KCl, 5 mM MgSO4, 100 mM triethanolamine at pH 7.4, with 400 µM NADH and 2 mM ADP. 2-Phosphoglycerate (2-PGA), pyruvate kinase (PK) and lactate dehydrogenase (LDH) are provided in excess, with the conversion of 2-PGA to PEP by enolase being rate limiting. PEP (with ADP) is a substrate of PK; pyruvate formed by this reaction is linked to NADH oxidation by LDH. Enolase activity is determined by measuring oxidation of NADH fluorescently by excitation at 340 nm and emission at 460 nm. The substrate concentration, if not otherwise indicated, was 5 mM 2-PGA. Fluorescence was measured using the Omega Fluorescence Plate Reader (BMG Labtech). Enolase activity was measured in native lysates of E. coli. Overnight grown saturated E. coli (DH5α) liquid culture was pelleted by centrifugation, washed and resuspended in 50 µL of lysis buffer which contains 150 mM NaCl, 50 mM Tris, 1mM EDTA, 2 mM DTT and 0.025% sodium azide. PMSF (10 mM stock solution) was then added to the lysate to make the final concentration 1 mM with 1% sodium deoxycholate. The suspension was incubated at 4 °C with constant mixing. […] Enolase activity in E. coli native lysates was measured directly by the appearance of PEP from 2-PGA via absorption at 240 nm. […]

ENO2 [4] = target: T1, ENO2; experiment: Enolase activity, NADH-linked PK/LDH coupled fluorometric assay in native lysates of human cancer cells overexpressing ENO2; format: biochemical; design: expressed in transfected cells; host or cells: D423-MG (ENO1-deleted human glioma) with ectopic ENO2
Method: as §1
(§2) Native lysates of human cell lines were prepared using 20 mM Tris HCl, 1 mM EDTA, and 1 mM β-mercaptoethanol at pH 7.4 as described previously. Enolase activity was measured using two different methods, either by a fluorometric NADH-linked assay or a direct spectrophotometric assay via formation of PEP. In the fluorescent assay, enolase activity was measured via NADH oxidation in a pyruvate kinase–lactate dehydrogenase coupled assay as previously described. The assay is conducted in 10 mM KCl, 5 mM MgSO4, 100 mM triethanolamine at pH 7.4, with 400 µM NADH and 2 mM ADP. 2-Phosphoglycerate (2-PGA), pyruvate kinase (PK) and lactate dehydrogenase (LDH) are provided in excess, with the conversion of 2-PGA to PEP by enolase being rate limiting. PEP (with ADP) is a substrate of PK; pyruvate formed by this reaction is linked to NADH oxidation by LDH. Enolase activity is determined by measuring oxidation of NADH fluorescently by excitation at 340 nm and emission at 460 nm. The substrate concentration, if not otherwise indicated, was 5 mM 2-PGA. Fluorescence was measured using the Omega Fluorescence Plate Reader (BMG Labtech). Enolase activity was measured in native lysates of E. coli. Overnight grown saturated E. coli (DH5α) liquid culture was pelleted by centrifugation, washed and resuspended in 50 µL of lysis buffer which contains 150 mM NaCl, 50 mM Tris, 1mM EDTA, 2 mM DTT and 0.025% sodium azide. PMSF (10 mM stock solution) was then added to the lysate to make the final concentration 1 mM with 1% sodium deoxycholate. The suspension was incubated at 4 °C with constant mixing. The extract was centrifuged at 4 °C, 14,000 g for 15 min. Enolase activity in E. coli native lysates was measured directly by the appearance of PEP from 2-PGA via absorption at 240 nm. The assay medium was the same, except that all the auxiliary reagents (PK/LDH, NADH, ADP) are omitted. Assays were conducted in a 96-well plated format with the direct assay performed in UV-transmissible plates.

ENO1 = target: T3, ENO1 (Homo sapiens, UniProt P06733); experiment: Enolase activity, NADH-linked PK/LDH coupled fluorometric assay in native lysates of human cancer cells overexpressing ENO1; format: biochemical; details: for IC50: lysates of D423 cells overexpressing ENO1
T3 construct: expressed in transfected cells; host or cells: D423-MG (ENO1-deleted human glioma) with ectopic ENO1
Method: We then determined Enolase inhibitory activity of (3R)-P1 and (3S)-P2 derived MethylSF2312 in native lysates from human cancer cells and E. coli overexpressing ENO1 and ENO2.
as §2, with “Assays were conducted in a 96-well plated format with the direct assay performed in UV-transmissible plates.” left out

[5] = lysates of human cancer cells (D423) overexpressing ENO2, 5 mM 2-PGA, read-out: IC50 for ENO2

T3 sequence (P06733 whole entry): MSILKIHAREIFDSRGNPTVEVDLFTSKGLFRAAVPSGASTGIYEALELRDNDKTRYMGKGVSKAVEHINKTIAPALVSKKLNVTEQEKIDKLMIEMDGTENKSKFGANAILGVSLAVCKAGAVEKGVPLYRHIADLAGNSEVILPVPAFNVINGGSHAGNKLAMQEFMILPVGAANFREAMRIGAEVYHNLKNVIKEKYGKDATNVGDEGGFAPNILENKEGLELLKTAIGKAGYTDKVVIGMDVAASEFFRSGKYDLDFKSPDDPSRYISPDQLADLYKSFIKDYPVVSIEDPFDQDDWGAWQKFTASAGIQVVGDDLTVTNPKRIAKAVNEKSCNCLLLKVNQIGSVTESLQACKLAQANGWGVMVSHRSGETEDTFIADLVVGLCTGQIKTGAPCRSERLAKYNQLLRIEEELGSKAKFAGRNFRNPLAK
T2 sequence (P0A6P9 whole entry): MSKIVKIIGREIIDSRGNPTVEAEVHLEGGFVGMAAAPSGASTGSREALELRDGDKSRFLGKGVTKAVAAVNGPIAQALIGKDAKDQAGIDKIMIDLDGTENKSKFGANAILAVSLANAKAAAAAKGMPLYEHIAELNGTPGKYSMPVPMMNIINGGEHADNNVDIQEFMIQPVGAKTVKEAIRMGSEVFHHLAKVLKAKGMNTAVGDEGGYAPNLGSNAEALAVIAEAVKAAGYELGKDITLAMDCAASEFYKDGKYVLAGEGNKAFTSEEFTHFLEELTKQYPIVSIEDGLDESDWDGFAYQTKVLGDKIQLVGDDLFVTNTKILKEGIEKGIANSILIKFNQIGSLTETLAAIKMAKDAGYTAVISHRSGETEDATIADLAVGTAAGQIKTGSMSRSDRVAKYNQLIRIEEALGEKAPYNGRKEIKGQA
T1 sequence (P09104 whole entry): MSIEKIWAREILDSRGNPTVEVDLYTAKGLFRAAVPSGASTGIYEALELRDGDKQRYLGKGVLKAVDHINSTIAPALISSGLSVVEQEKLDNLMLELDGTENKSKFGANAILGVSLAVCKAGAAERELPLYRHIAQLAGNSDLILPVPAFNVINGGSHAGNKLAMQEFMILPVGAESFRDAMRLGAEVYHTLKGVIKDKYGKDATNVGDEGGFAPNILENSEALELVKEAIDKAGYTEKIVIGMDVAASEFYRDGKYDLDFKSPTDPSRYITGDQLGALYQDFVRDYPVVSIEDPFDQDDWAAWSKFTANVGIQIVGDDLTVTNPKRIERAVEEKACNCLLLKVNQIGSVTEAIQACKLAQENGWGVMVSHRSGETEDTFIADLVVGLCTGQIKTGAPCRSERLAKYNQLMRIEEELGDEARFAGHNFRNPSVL

C[C@]1(P(=O)(O)O)CC(O)N(O)C1=O (stereo partly drawn) [(3S)-MethylSF2312]
occupancy of the ENO2 active site in the electron density map (in words) (ENO2 [1]): occupied in 3S,5S-configuration | zone of inhibition (in words) (E. coli (DH5α); 35 µg per disc, Muller Hinton Agar and Blood Agar, with G6P, overnight 37 °C): distinct zone of inhibition | concentration exhibiting toxicity to ENO1-deleted glioma cells ([2]; D423 ENO1-deleted, 7 days, crystal violet): ~ 2 µM | fold greater Enolase inhibitory potency compared to (3R)-MethylSF2312 ([3]; E. coli lysates): ~ 2000 fold | IC50 (ENO2 [4]; [5]): ~10 nM | IC50 (ENO1): ~0.01 µM

CC1(P(=O)(O)O)CC(O)N(O)C1=O (stereo not shown) [MethylSF2312, (1,5-dihydroxy-3-methyl-2-oxopyrrolidin-3-yl)phosphonic acid]
zone of inhibition at 35 µg/disc (E. coli (DH5α); 7 mm disc with 35 µg, Muller-Hinton Agar, overnight, with glucose-6-phosphate): ~24 mm | toxicity against ENO1-deleted versus ENO1-intact glioma cells (in words) [2]: selective toxicity | IC50 ([3]; direct PEP absorbance at 240 nm, read-out: IC50, Enolase in E. coli lysates): ~10 nM | IC50 (ENO2 [4]; [5]): ~10 nM

O=C1C(P(=O)(O)O)CC(O)N1O (stereo not shown) [SF2312, (1,5-dihydroxy-2-oxopyrrolidin-3-yl)phosphonic acid]
zone of inhibition at 35 µg/disc (E. coli (DH5α)): ~24 mm | toxicity against ENO1-deleted versus ENO1-intact glioma cells (in words) [2]: selective toxicity | IC50 [3]: ~10 nM | IC50 (ENO2 [4]): ~10 nM

C[C@@]1(P(=O)(O)O)CC(O)N(O)C1=O (stereo partly drawn) [(3R)-MethylSF2312]
occupancy of the ENO2 active site in the electron density map (in words) (ENO2 [1]): no evidence of occupancy | toxicity towards ENO1-deleted glioma cells (in words) ([2]; even at 400 µM, D423 ENO1-deleted, 7 days): minimal toxicity | IC50 (ENO2 [4]; lysates of D423 cells overexpressing ENO2, read-out: IC50 for ENO2): ~15000 nM | fold less potent than (3S)-MethylSF2312 (ENO1; ENO1, ratio of IC50 values): 2000 fold | IC50 (ENO1): ~15 µM

Source: PMC6651268, “The 3S Enantiomer Drives Enolase Inhibitory Activity in SF2312 and Its Analogues” (Molecules, 2019)
